# Measurements from ChEMBL document CHEMBL5614376, “Discovery of MT-1207: A Novel, Potent Multitarget Inhibitor as a Promising Clinical Candidate for the Treatment of Hypertension” (J Med Chem, 2024).
# Active and inactive are the calls of the source. The rule behind the calls is not given here.
# Key:
# [1] = biological target: 5-hydroxytryptamine receptor 2A (Homo sapiens, UniProt P28223); assay: Displacement of [3H]Ketanserin from recombinant human 5-HT2A receptor extracted from CHO cell membrane at 10 nM incubated for 60 mins by radioligand binding assay relative to control; type: cell membranes; conditions: filed as antagonist
# Chain of 5-hydroxytryptamine receptor 2A (P28223 whole entry): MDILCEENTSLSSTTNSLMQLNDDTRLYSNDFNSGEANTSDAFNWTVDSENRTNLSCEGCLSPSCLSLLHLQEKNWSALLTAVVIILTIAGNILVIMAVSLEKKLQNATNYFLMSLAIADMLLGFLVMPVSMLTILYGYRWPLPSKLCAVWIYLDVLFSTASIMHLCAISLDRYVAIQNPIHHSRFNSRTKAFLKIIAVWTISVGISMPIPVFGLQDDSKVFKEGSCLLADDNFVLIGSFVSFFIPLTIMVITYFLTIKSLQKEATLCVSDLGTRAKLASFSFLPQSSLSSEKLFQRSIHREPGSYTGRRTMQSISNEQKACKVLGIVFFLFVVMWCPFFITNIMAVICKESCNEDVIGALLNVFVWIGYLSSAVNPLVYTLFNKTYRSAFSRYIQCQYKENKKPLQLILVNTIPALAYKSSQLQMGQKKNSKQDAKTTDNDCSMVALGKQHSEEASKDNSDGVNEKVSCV
# [2] = Plasma protein binding in Sprague-Dawley rat at 0.1 uM incubated for 30 mins; type: ADME, cell-free; conditions: read-out: PPB (converted)
# [3] = Plasma protein binding in Sprague-Dawley rat at 1 uM incubated for 30 mins; type: ADME, cell-free; conditions: read-out: PPB (converted)
# [4] = Plasma protein binding in Beagle dog at 10 uM incubated for 30 mins; type: ADME, cell-free, Canis lupus familiaris; conditions: read-out: PPB (converted)
# [5] = Plasma protein binding in Cynomolgus monkey at 0.1 uM incubated for 30 mins; type: ADME, cell-free, Macaca fascicularis; conditions: read-out: PPB (converted)
# [6] = Plasma protein binding in Cynomolgus monkey at 1 uM incubated for 30 mins; type: ADME, cell-free, Macaca fascicularis; conditions: read-out: PPB (converted)
# [7] = Plasma protein binding in human at 1 uM incubated for 30 mins; type: ADME, cell-free; conditions: read-out: PPB (converted)
# [8] = Plasma protein binding in human at 10 uM incubated for 30 mins; type: ADME, cell-free; conditions: read-out: PPB (converted)
# [9] = Metabolic stability in macaque liver microsomes assessed as compound remaining at 10 umol/L incubated upto 120 mins in presence of NADPH by LC-MS/MS analysis; type: ADME, Microsome; conditions: macaca, dose 10 µmol/L, read-out: Stability
# [10] = Half life in Sprague-Dawley rat at 1 mg/kg, iv measured for 24 hrs by UPLC/MS/MS analysis; type: ADME, organism-based; conditions: in vivo
# [11] = Apparent volume of distribution during terminal phase in Sprague-Dawley rat at 1 mg/kg, iv measured for 24 hrs by UPLC/MS/MS analysis; type: ADME, organism-based; conditions: in vivo
# [12] = AUC (0 to t) in Sprague-Dawley rat at 1 mg/kg, po measured for 24 hrs by UPLC/MS/MS analysis; type: ADME, organism-based; conditions: in vivo
# [13] = Oral bioavailability in Sprague-Dawley rat at 1 mg/kg measured for 24 hrs by UPLC/MS/MS analysis; type: ADME, organism-based; conditions: in vivo
# [14] = Apparent oral clearance in Sprague-Dawley rat at 3 mg/kg, po measured for 24 hrs by UPLC/MS/MS analysis; type: ADME, organism-based; conditions: in vivo
# [15] = AUC (0 to t) in Sprague-Dawley rat at 9 mg/kg, po measured for 24 hrs by UPLC/MS/MS analysis; type: ADME, organism-based; conditions: in vivo
# [16] = Apparent volume of distribution during terminal phase in Sprague-Dawley rat at 9 mg/kg, po measured for 24 hrs by UPLC/MS/MS analysis; type: ADME, organism-based; conditions: in vivo, read-out: Vz/F
# [17] = Apparent oral clearance in Sprague-Dawley rat at 9 mg/kg, po measured for 24 hrs by UPLC/MS/MS analysis; type: ADME, organism-based; conditions: in vivo
# [18] = system: Rattus norvegicus; assay: Antihypertensive activity in 2K2C renovascular hypertensive Sprague-Dawley rat model assessed as systolic blood pressure at 10 mg/kg, po measured after 9 weeks (Rvb ~ 202 mmHg); type: functional
# [19] = system: Rattus norvegicus; assay: Effect on serum K+ level in 2K2C renovascular hypertensive Sprague-Dawley rat model at 10 mg/kg, po measured after 9 weeks by biochemical analysis; type: functional, organism-based
# [20] = system: Rattus norvegicus; assay: Effect on postural hypotension in Sprague-Dawley rat assessed as change in systolic blood pressure at 5 mg/kg, po treated for >30 mins followed by induction of postural hypotension measured immediately after postural change (reference value: 131 +/- 9 mmHg); type: functional; conditions: 0.5 h
# [21] = system: Rattus norvegicus; assay: Effect on postural hypotension in Sprague-Dawley rat assessed as change in systolic blood pressure at 10 mg/kg, po treated for >30 mins followed by induction of postural hypotension measured 5 secs after postural change (reference value: 126 +/- 12 mmHg); type: functional; conditions: time > 30.08 min, 0.5013 h
# [22] = system: Rattus norvegicus; assay: Effect on postural hypotension in Sprague-Dawley rat assessed as change in systolic blood pressure at 2.5 mg/kg, po treated for >30 mins followed by induction of postural hypotension measured 10 secs after postural change (reference value: 127 +/- 12 mmHg); type: functional; conditions: time > 30.17 min, 0.5028 h
# [23] = system: Rattus norvegicus; assay: Effect on postural hypotension in Sprague-Dawley rat assessed as change in systolic blood pressure at 5 mg/kg, po treated for >30 mins followed by induction of postural hypotension measured 10 secs after postural change (reference value: 127 +/- 12 mmHg); type: functional; conditions: time > 30.17 min, 0.5028 h
# [24] = system: Rattus norvegicus; assay: Effect on postural hypotension in Sprague-Dawley rat assessed as change in systolic blood pressure at 5 mg/kg, po treated for >30 mins followed by induction of postural hypotension measured 60 secs after postural change (reference value: 127 +/- 10 mmHg); type: functional; conditions: time > 31 min
# [25] = Acute toxicity in Sprague-Dawley rat assessed as drug tolerance at 250 to 1000 mg/kg, po single administration measured for 14 days; type: organism-based; conditions: in vivo, 336 h, dose 250-1000 mg/kg, time 14 day
# [26] = Acute toxicity in Sprague-Dawley rat with single oral administration measured for 14 days; conditions: in vivo, time 14 day
# [27] = Toxicity in Sprague-Dawley rat assessed as unplanned animal mortality at 10 to 100 mg/kg, po qd treated for 13 weeks consecutively measured after 4 week recovery period; type: organism-based; conditions: in vivo, 2856 h, dose 10-100 mg/kg, time 17 weeks
# [28] = Toxicity in Sprague-Dawley rat assessed as notable drug-related change at 10 to 100 mg/kg, po qd treated for 13 weeks consecutively measured after 4 week recovery period; type: organism-based; conditions: in vivo, 2856 h, dose 10-100 mg/kg, time 17 weeks
# [29] = Toxicity in Sprague-Dawley rat assessed as body weight anomaly at 10 mg/kg, po qd treated for 13 weeks consecutively measured after 4 week recovery period; type: organism-based; conditions: in vivo, 2856 h, time 17 weeks
# [30] = Cmax in male Sprague-Dawley rat at 30 mg/kg, po measured on day 1 by UP/LC/MS/MS analysis; type: ADME, organism-based; conditions: in vivo, time 1 day
# [31] = Cmax in female Sprague-Dawley rat at 100 mg/kg, po measured on day 1 by UP/LC/MS/MS analysis; type: ADME, organism-based; conditions: in vivo, time 1 day
# [32] = AUC (0 to t) in female Sprague-Dawley rat at 30 mg/kg, po measured on day 1 by UP/LC/MS/MS analysis; type: ADME, organism-based; conditions: in vivo, time 1 day
# [33] = AUC (0 to t) in female Sprague-Dawley rat at 100 mg/kg, po measured on day 1 by UP/LC/MS/MS analysis; type: ADME, organism-based; conditions: in vivo, time 1 day
# [34] = Tmax in male Sprague-Dawley rat at 10 mg/kg, po qd treated for 13 weeks consecutively measured after recovery period on day 91 by UP/LC/MS/MS analysis; type: ADME, organism-based; conditions: in vivo, time 91 day
# [35] = AUC (0 to t) in male Sprague-Dawley rat at 10 mg/kg, po qd treated for 13 weeks consecutively measured after recovery period on day 91 by UP/LC/MS/MS analysis; type: ADME, organism-based; conditions: in vivo, time 91 day
# [36] = AUC (0 to t) in male Sprague-Dawley rat at 100 mg/kg, po qd treated for 13 weeks consecutively measured after recovery period on day 91 by UP/LC/MS/MS analysis; type: ADME, organism-based; conditions: in vivo, time 91 day
# [37] = AUC (0 to t) in female Sprague-Dawley rat at 100 mg/kg, po qd treated for 13 weeks consecutively measured after recovery period on day 91 by UP/LC/MS/MS analysis; type: ADME, organism-based; conditions: in vivo, time 91 day
# [38] = Toxicity in Sprague-Dawley rat assessed as drug tolerance at 10 to 100 mg/kg, po qd treated for 13 weeks; type: organism-based; conditions: in vivo, 2184 h, dose 10-100 mg/kg
compound,measurement,setting,value
Cl.c1ccc2c(c1)nnn2CCCCN1CCN(c2nsc3ccccc23)CC1,inhibition,[1],96%
same,"fraction unbound at 0.5 h, 0.1 µM",[2],0.022
same,"fraction unbound at 0.5 h, 1 µM",[3],0.019
same,"fraction unbound at 0.5 h, 10 µM",[4],0.007
same,"fraction unbound at 0.5 h, 0.1 µM",[5],0.015
same,"fraction unbound at 0.5 h, 1 µM",[6],0.006
same,"fraction unbound at 0.5 h, 1 µM",[7],0.004
same,"fraction unbound at 0.5 h, 10 µM",[8],0.004
same,"remaining at 2 h, 10 µM",[9],1.5%
same,half-life,[10],1.3 h
same,Vz/F,[11],4.5 L
same,AUC(0-t) at 24 h,[12],51.7 ng·h/mL
same,bioavailability,[13],11.7%
same,CL/F,[14],130 mL/min
same,AUC(0-t) at 24 h,[15],605 ng·h/mL
same,Vd/F,[16],78.9 L
same,CL/F,[17],587 mL/min
same,Activity,[18],169 mmHg
same,Activity,[19],Active
same,Activity,[20],89 mmHg
same,Activity,[21],81 mmHg
same,Activity,[22],89 mmHg
same,Activity,[23],82 mmHg
same,Activity,[24],83 mmHg
same,Activity,[25],Non-Toxic
same,MTD at 336 h,[26],> 1000 mg/kg
same,Activity,[27],Non-Toxic
same,Activity,[28],Non-Toxic
same,Activity,[29],Non-Toxic
same,Cmax,[30],109 ng/mL
same,Cmax,[31],1080 ng/mL
same,AUC(0-t) at 24 h,[32],1440 ng·h/mL
same,AUC(0-t) at 24 h,[33],7910 ng·h/mL
same,Tmax,[34],1.3 h
same,AUC(0-t) at 2184 h,[35],112 ng·h/mL
same,AUC(0-t) at 2184 h,[36],4790 ng·h/mL
same,AUC(0-t) at 2184 h,[37],7450 ng·h/mL
same,Activity,[38],Non-Toxic
